Source: PubChem BioAssay AID256 (DTP/NCI, 2004)
Several values for one entry are separate records, joined by “and”; a condition that tells them apart may be missing. Equal entries are not always repeated. Inconclusive results and toxic doses are left out. How the source made its calls: active means survival T/C of 150% or more; inactive means T/C below 125% in these data. Residues, ends and D or L forms follow the SMILES beside them.

Test system: CD2F1 mice, L1210 leukemia ip, survival T/C
Assay: NCI In Vivo Anticancer Drug Screen. Data for tumor model L1210 Leukemia (intraperitoneal) in CD2F1 (CDF1) mice
Details: higher = longer survival
Outline: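 In this screen, transplantable tumors were grown in mice given either the compound or its vehicle. Results were expressed as the treated measurement relative to the control measurement.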

[1] = endpoint: mean survival time, dose: 100.0 mg/kg/injection, schedule: Q01DX009 (ip), vehicle: saline with Tween-80
[2] = endpoint: mean survival time, dose: 200.0 mg/kg/injection, schedule: Q01DX009 (ip), vehicle: saline with Tween-80
[3] = endpoint: mean survival time, dose: 400.0 mg/kg/injection, schedule: Q01DX009 (ip), vehicle: saline with Tween-80
[4] = endpoint: mean survival time, dose: 100.0 mg/kg/injection, schedule: Q04DX003 (ip), vehicle: saline with Tween-80
[5] = endpoint: mean survival time, dose: 200.0 mg/kg/injection, schedule: Q04DX003 (ip), vehicle: saline with Tween-80
[6] = endpoint: mean survival time, dose: 400.0 mg/kg/injection, schedule: Q04DX003 (ip), vehicle: saline with Tween-80
[7] = endpoint: mean survival time, dose: 100.0 mg/kg/injection, schedule: Q01DX001 (ip), vehicle: saline with Tween-80
[8] = endpoint: mean survival time, dose: 200.0 mg/kg/injection, schedule: Q01DX001 (ip), vehicle: saline with Tween-80
[9] = endpoint: mean survival time, dose: 400.0 mg/kg/injection, schedule: Q01DX001 (ip), vehicle: saline with Tween-80
[10] = endpoint: mean survival time, dose: 25.0 mg/kg/injection, schedule: Q01DX009 (ip), vehicle: saline with Tween-80
[11] = endpoint: mean survival time, dose: 50.0 mg/kg/injection, schedule: Q01DX009 (ip), vehicle: saline with Tween-80

Measured: T/C

CC(C)C(NC(=O)C(NC(=O)C(CCCN=C(N)N)NC(=O)C(N)CCCCN)C(C)C)C(N)=O (stereo not drawn) (H-KRVV-NH2; configuration not given here)
inactive: endpoint: mean survival time, dose: 25.0 mg/kg/injection, schedule: Q01DX009 (ip), vehicle: water 95 % of control | endpoint: mean survival time, dose: 50.0 mg/kg/injection, schedule: Q01DX009 (ip), vehicle: water 100 % of control | endpoint: mean survival time, dose: 100.0 mg/kg/injection, schedule: Q01DX009 (ip), vehicle: water 108 % of control | endpoint: mean survival time, dose: 200.0 mg/kg/injection, schedule: Q01DX009 (ip), vehicle: water 103 % of control

Clc1ccc(NC(Nc2ccc(Cl)cc2Cl)C(Cl)(Cl)Cl)c(Cl)c1
inactive: [1] 101 % of control | [2] 106 % of control | [3] 95 % of control

CCCCCCCCCCCCCCCCNC(=O)C[N+](C)(C)Cc1ccccc1
inactive: endpoint: mean survival time, dose: 5.0 mg/kg/injection, schedule: Q04DX003 (ip), vehicle: saline with Tween-80 100 % of control | endpoint: mean survival time, dose: 10.0 mg/kg/injection, schedule: Q04DX003 (ip), vehicle: saline with Tween-80 101 % of control

NC1CCCCC1N.O=C([O-])c1cc(S(=O)(=O)Nc2cc(S(=O)(=O)[O-])cc3cc(S(=O)(=O)[O-])cc(O)c23)ccc1[O-].[Pt+4]
inactive: endpoint: median survival time, dose: 0.39 mg/kg/injection, schedule: Q04DX003 (ip), vehicle: saline with Tween-80 124 % of control
active: endpoint: median survival time, dose: 1.56 mg/kg/injection, schedule: Q04DX003 (ip), vehicle: saline with Tween-80 181 % of control | endpoint: median survival time, dose: 3.12 mg/kg/injection, schedule: Q04DX003 (ip), vehicle: saline with Tween-80 253 % of control and 264 % of control
289 % of control and 103 % of control: endpoint: median survival time, dose: 6.25 mg/kg/injection, schedule: Q04DX003 (ip), vehicle: saline with Tween-80

O=C(OC1C=CCC=C1)c1cc([N+](=O)[O-])cc([N+](=O)[O-])c1
inactive: endpoint: mean survival time, dose: 100.0 mg/kg/injection, schedule: Q01DX009 (ip), vehicle: other 101 % of control | endpoint: mean survival time, dose: 200.0 mg/kg/injection, schedule: Q01DX009 (ip), vehicle: other 95 % of control | endpoint: mean survival time, dose: 400.0 mg/kg/injection, schedule: Q01DX009 (ip), vehicle: other 93 % of control

COc1ccccc1N1C(=O)CSC1=S
inactive: [4] 96 % of control | [5] 93 % of control | [6] 106 % of control

CC1CC(=O)C(CCC#N)=C(O)C1 (stereo not drawn)
inactive: [4] 94 % of control | [5] 91 % of control | [6] 91 % of control

Nc1nc(F)nc2c1ncn2C1OC(COC=O)C(OC=O)C1O (stereo not drawn) (tested in a mixture with another compound)
active: endpoint: mean survival time, dose: 100.0 mg/kg/injection, schedule: Q01DX009 (ip), vehicle: saline 205 % of control | endpoint: mean survival time, dose: 125.0 mg/kg/injection, schedule: Q01DX009 (ip), vehicle: saline 243 % of control and 419 % of control | endpoint: mean survival time, dose: 150.0 mg/kg/injection, schedule: Q01DX009 (ip), vehicle: saline with Tween-80 512 % of control | endpoint: mean survival time, dose: 150.0 mg/kg/injection, schedule: Q01DX009 (ip), vehicle: saline 288 % of control and 370 % of control | endpoint: mean survival time, dose: 175.0 mg/kg/injection, schedule: Q01DX005 (ip), vehicle: saline with Tween-80 163 % of control | endpoint: mean survival time, dose: 175.0 mg/kg/injection, schedule: Q01DX009 (ip), vehicle: saline with Tween-80 551 % of control | endpoint: mean survival time, dose: 175.0 mg/kg/injection, schedule: Q01DX009 (ip), vehicle: saline 318 % of control | endpoint: mean survival time, dose: 200.0 mg/kg/injection, schedule: Q01DX005 (ip), vehicle: saline with Tween-80 179 % of control | [2] 298 % of control | endpoint: mean survival time, dose: 250.0 mg/kg/injection, schedule: Q01DX009 (ip), vehicle: saline with Tween-80 189 % of control

C=C(Br)CNC(=O)NCC(=C)Br
inactive: [7] 91 % of control | [8] 96 % of control | [9] 101 % of control

CC(C)CNC(=O)Nc1ccccc1C(F)(F)F
inactive: [1] 96 % of control | [2] 98 % of control | [3] 91 % of control

CCCCCCCCCCCC[NH-].CCCCCCCCCCCC[NH-].[Cl][Pt+2][Cl]
inactive: endpoint: mean survival time, dose: 6.25 mg/kg/injection, schedule: Q04DX003 (ip), vehicle: saline + alcohol 111 % of control | endpoint: mean survival time, dose: 12.5 mg/kg/injection, schedule: Q04DX003 (ip), vehicle: saline + alcohol 95 % of control | endpoint: mean survival time, dose: 25.0 mg/kg/injection, schedule: Q04DX003 (ip), vehicle: saline + alcohol 100 % of control | endpoint: mean survival time, dose: 50.0 mg/kg/injection, schedule: Q04DX003 (ip), vehicle: saline + alcohol 103 % of control | endpoint: mean survival time, dose: 100.0 mg/kg/injection, schedule: Q04DX003 (ip), vehicle: saline + alcohol 100 % of control

CS(=O)(=O)OCCN(CCOS(C)(=O)=O)c1cccc(C(F)(F)F)c1
inactive: endpoint: mean survival time, dose: 6.25 mg/kg/injection, schedule: Q01DX015 (ip), vehicle: saline 113 % of control | endpoint: mean survival time, dose: 12.5 mg/kg/injection, schedule: Q01DX015 (ip), vehicle: saline 119 % of control | endpoint: mean survival time, dose: 25.0 mg/kg/injection, schedule: Q01DX015 (ip), vehicle: saline 107 % of control | endpoint: mean survival time, dose: 50.0 mg/kg/injection, schedule: Q01DX015 (ip), vehicle: saline 98 % of control

O=C(O)CC1=C(c2ccc3ccccc3c2)CCC1=O
inactive: endpoint: mean survival time, dose: 100.0 mg/kg/injection, schedule: Q01DX001 (ip), vehicle: saline 98 % of control | endpoint: mean survival time, dose: 200.0 mg/kg/injection, schedule: Q01DX001 (ip), vehicle: saline 98 % of control | endpoint: mean survival time, dose: 400.0 mg/kg/injection, schedule: Q01DX001 (ip), vehicle: saline 98 % of control

Cc1ccc(S(=O)(=O)N(C)Cc2ccccc2)cc1
inactive: [1] 96 % of control | [2] 106 % of control | [3] 98 % of control

Clc1ccccc1/C=N/N=C/c1ccccc1Cl
inactive: [7] 91 % of control | [8] 90 % of control | [9] 89 % of control

O=C(O)C1SCCCS1
inactive: endpoint: mean survival time, dose: 12.5 mg/kg/injection, schedule: Q04DX002 (ip), vehicle: saline 105 % of control | endpoint: mean survival time, dose: 25.0 mg/kg/injection, schedule: Q04DX002 (ip), vehicle: saline 94 % of control | endpoint: mean survival time, dose: 50.0 mg/kg/injection, schedule: Q04DX002 (ip), vehicle: saline 94 % of control

COC1OC(CNC(=O)N(C)N=O)C(O)C(O)C1O (stereo not drawn)
inactive: endpoint: mean survival time, dose: 33.0 mg/kg/injection, schedule: Q01DX009 (ip), vehicle: saline 120 % of control
active: endpoint: mean survival time, dose: 113.0 mg/kg/injection, schedule: Q01DX009 (ip), vehicle: saline 153 % of control

O=c1ccn(C2OC(CO)C(F)(CO)C2O)c(=O)[nH]1 (stereo not drawn)
inactive: endpoint: mean survival time, dose: 12.5 mg/kg/injection, schedule: Q01DX005 (ip), vehicle: water 103 % of control | endpoint: mean survival time, dose: 25.0 mg/kg/injection, schedule: Q01DX005 (ip), vehicle: water 109 % of control | endpoint: mean survival time, dose: 50.0 mg/kg/injection, schedule: Q01DX005 (ip), vehicle: water 97 % of control | endpoint: mean survival time, dose: 100.0 mg/kg/injection, schedule: Q01DX005 (ip), vehicle: water 94 % of control | endpoint: mean survival time, dose: 200.0 mg/kg/injection, schedule: Q01DX005 (ip), vehicle: water 105 % of control

COc1cc2c(cc1OC)C1CC(=O)C3=C(CCCC3)N1CC2 (stereo not drawn)
inactive: [4] 101 % of control | [5] 95 % of control | [6] 89 % of control

COc1ccc(CNC(C)(C#N)c2ccccc2)cc1OC (stereo not drawn)
inactive: [4] 107 % of control | [5] 93 % of control | [6] 98 % of control

COC(=O)C(C)C(C)(O)C(C)(C)C (stereo not drawn)
inactive: [10] 100 % of control | endpoint: mean survival time, dose: 25.0 mg/kg/injection, schedule: Q04DX003 (ip), vehicle: saline 103 % of control | [11] 101 % of control | endpoint: mean survival time, dose: 50.0 mg/kg/injection, schedule: Q04DX003 (ip), vehicle: saline 103 % of control | [1] 102 % of control | endpoint: mean survival time, dose: 100.0 mg/kg/injection, schedule: Q04DX003 (ip), vehicle: saline 98 % of control

Cc1c2cc(Cl)c3ccccc3c2c[n+]2ccccc12
inactive: endpoint: mean survival time, dose: 3.12 mg/kg/injection, schedule: Q01DX009 (ip), vehicle: saline with Tween-80 102 % of control and 106 % of control | endpoint: mean survival time, dose: 6.25 mg/kg/injection, schedule: Q01DX009 (ip), vehicle: saline with Tween-80 100 % of control and 109 % of control | endpoint: mean survival time, dose: 12.5 mg/kg/injection, schedule: Q01DX009 (ip), vehicle: saline with Tween-80 118 % of control and 102 % of control | [10] 114 % of control and 104 % of control | [11] 114 % of control and 110 % of control | [1] 124 % of control and 102 % of control

NC1CCCCC1N.O=C1C=C/C(=C(/c2ccc(O)c(Br)c2)c2ccccc2S(=O)(=O)[O-])C=C1Br.O=C1C=C/C(=C(/c2ccc(O)c(Br)c2)c2ccccc2S(=O)(=O)[O-])C=C1Br.[Pt+4]
active: endpoint: median survival time, dose: 3.12 mg/kg/injection, schedule: Q04DX003 (ip), vehicle: saline 175 % of control | endpoint: median survival time, dose: 6.25 mg/kg/injection, schedule: Q04DX003 (ip), vehicle: saline 219 % of control | endpoint: median survival time, dose: 12.5 mg/kg/injection, schedule: Q04DX003 (ip), vehicle: saline 239 % of control | endpoint: median survival time, dose: 25.0 mg/kg/injection, schedule: Q04DX003 (ip), vehicle: saline 329 % of control
